Source: paper PMC12483202, “Pharmacokinetic profile of oral firocoxib in the koala (Phascolarctos cinereus)” (PLOS One, 2025)

Test: Single oral dose (5 mg/kg) pharmacokinetics of firocoxib in koalas, plasma HPLC, non-compartmental analysis;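 also: healthy adult koalas, three per sex, anaesthetised the day before dosing for cephalic vein catheterisation, with serial blood draws and firocoxib in plasma quantified by HPLC using fluorescence detection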
Conditions: for AUC(0-t): AUC0-t; for MRT inf: MRT0-inf; for k el: ke; for concentration at 1 h / concentration at 2 h / concentration at 4 h / concentration at 8 h: koala (Phascolarctos cinereus)
[1] = arithmetic mean, female koalas (n = 3), single oral 5 mg/kg
[2] = arithmetic mean, male koalas (n = 3), single oral 5 mg/kg
[3] = arithmetic mean, n = 6 koalas, single oral 5 mg/kg
[4] = both, plasma, po, 5 mg/kg, arithmetic mean, n = 6 koalas, single oral 5 mg/kg
[5] = both, plasma, po, 5 mg/kg, harmonic mean, n = 6 koalas, single oral 5 mg/kg
[6] = both, plasma, po, 5 mg/kg, median (range), n = 6 koalas, single oral 5 mg/kg
[7] = female, plasma, po, 5 mg/kg, Firocoxib plasma concentration, K4 female, single oral 5 mg/kg
[8] = female, plasma, po, 5 mg/kg, Firocoxib plasma concentration, K5 female, single oral 5 mg/kg
[9] = female, plasma, po, 5 mg/kg, Firocoxib plasma concentration, K6 female, single oral 5 mg/kg
[10] = female, koala, plasma, po, 5 mg/kg, Firocoxib plasma concentration, K4 female, single oral 5 mg/kg
[11] = female, koala, plasma, po, 5 mg/kg, Firocoxib plasma concentration, K5 female, single oral 5 mg/kg
[12] = female, koala, plasma, po, 5 mg/kg, Firocoxib plasma concentration, K6 female, single oral 5 mg/kg
[13] = female, plasma, po, 5 mg/kg, K4 female, single oral 5 mg/kg
[14] = female, plasma, po, 5 mg/kg, K5 female, single oral 5 mg/kg
[15] = female, plasma, po, 5 mg/kg, K6 female, single oral 5 mg/kg
[16] = female, plasma, po, 5 mg/kg, arithmetic mean, female koalas (n = 3), single oral 5 mg/kg
[17] = female, plasma, po, 5 mg/kg, harmonic mean, female koalas (n = 3), single oral 5 mg/kg

Source text: Six mature koalas (3 males, 3 females) with median (range) body weights and ages of 9.2 kg, (7.5 to 9.7 kg) and 4.8 years (4.3 to 9.1 years), respectively, were recruited from the Taronga Zoo colony (Mosman, NSW, Australia). These koalas were clinically normal based on regular physical examinations, haematological and biochemical analyte values. During the study, koalas were housed singly and supplied with various Eucalyptus spp. foliage and water ad-libitum. […] No animals were sacrificed; the animals were returned to the colony immediately after firocoxib administration and blood sampling. In order to minimise stress, intravenous catheterisation for sequential blood sampling was performed under general anaesthesia.
The day prior to drug administration and blood collection, the koalas were anaesthetised with alfaxalone (Alfaxan, Jurox, Pty Ltd, Rutherford, NSW, Australia) at 3 mg/kg administered intramuscularly (i.m.) and maintained under anaesthesia on isoflurane in 100% oxygen via a face mask for placement of a 20 gauge, 1 ¼ inch intravenous catheter into the cephalic vein. A short T-connector extension set (Codan, Santa Ana, CA, USA) and cap was attached to the catheter and flushed with saline. The extension tube, cap and catheter were secured with tape and bandage, for serial blood collection. Blood (5 mL) was collected at the time of anaesthesia in a lithium heparin tube to establish a baseline (t = 0 h).
Firocoxib was administered as a single oral dose of 5 mg/kg as crushed tablets made into a paste with Vetafarm Koala Crittacare (Wagga Wagga, NSW) and water.
Samples were centrifuged at 1500 x g for 10 minutes, within 1 h of collection; the plasma was immediately stored at –80 °C and protected from light until drug quantification. […] Clinical observations for the presence of adverse effects in the animals treated included measurement of vital signs, appetite, body weight, faecal consistency and overall behaviour and mobility.
Quantification of firocoxib and visualisation of metabolites in plasma was achieved by HPLC with fluorescence detection modified from a published method [12]. The HPLC system consisted of a Shimadzu LC-20AT solvent delivery unit, DGU-20A degasser, a SIL-20A HT auto injector, an SPD-20A UV detector and RF-10A XL fluorescence detector (Shimadzu, Rydalmere, NSW, Australia) and column oven (CTO-20A). […] Chromatographic separation was performed with a Supelco, Discovery C18, (25 cm x 4.6 mm, 5 µm) column (Merck KGaA, Darmstadt, Germany) with a 1-mm Opti-guard C18 pre-column (Choice Analytical, Thornleigh, NSW, Australia) at ambient temperature. […] Fluorescence detection excitation and emission wavelengths were 280 nm and 375 nm, respectively.
For sample preparation 200 μL of each of the following: plasma samples collected from koalas administered firocoxib, standards prepared for the standard curves and the QC samples; were extracted twice by mixing with 800 μL of ethyl acetate. The extracted organic portion (1.6 mL) was dried under vacuum in a Speed Vac Concentrator (Thermo Scientific, MA, USA) at 35 °C for 1 h, reconstituted with 100 μL of acetonitrile, and finally 10 μL of the reconstituted sample was injected into the HPLC system.
The concentration of each QC sample was repeated three times with the accuracy and precision calculated on each of the triplicates. The mean accuracy ± standard deviation (SD) were calculated using the formula [13]:
Firocoxib plasma concentrations from the initial oral administration underwent non-compartmental analysis. The peak concentration (Cmax) and the time reached (Tmax) were obtained directly from the measured concentrations. The elimination half-life (t1/2) was determined by ln2/ke where ke is the elimination rate constant which is the inverse slope of the elimination or terminal part of the semi-log curve.

With `CC1(C)OC(=O)C(OCC2CC2)=C1c1ccc(S(C)(=O)=O)cc1` [firocoxib] the “AUC 0-t/AUC0-inf” value (K1 male, single oral 5 mg/kg) was 0.72, the “AUMC 0-inf” value (K1 male, single oral 5 mg/kg) was 56998 ng/mL*h^2 and the Cl/F (K1 male, single oral 5 mg/kg) was 19.0 L/h. For the same molecule, the “ka (absorption constant)” value (K1 male, single oral 5 mg/kg) was 0.11 h⁻¹, the “AUC 0-t/AUC0-inf” value (K2 male, single oral 5 mg/kg) was 0.99 and the “AUMC 0-inf” value (K2 male, single oral 5 mg/kg) was 11422 ng/mL*h^2. The Cl/F (K2 male, single oral 5 mg/kg) was 30.5 L/h, the “ka (absorption constant)” value (K2 male, single oral 5 mg/kg) was 0.21 h⁻¹ and the “AUC 0-t/AUC0-inf” value (K3 male, single oral 5 mg/kg) was 0.99. For the same molecule, the “AUMC 0-inf” value (K3 male, single oral 5 mg/kg) was 13436.9 ng/mL*h^2, the Cl/F (K3 male, single oral 5 mg/kg) was 24.6 L/h and the “ka (absorption constant)” value (K3 male, single oral 5 mg/kg) was 0.17 h⁻¹. For the same molecule, the “AUC 0-t/AUC0-inf” value (K4 female, single oral 5 mg/kg) was 0.98, the “AUMC 0-inf” value (K4 female, single oral 5 mg/kg) was 8500.1 ng/mL*h^2 and the Cl/F (K4 female, single oral 5 mg/kg) was 38.5 L/h. For the same molecule, the “ka (absorption constant)” value (K4 female, single oral 5 mg/kg) was 0.43 h⁻¹, the “AUC 0-t/AUC0-inf” value (K5 female, single oral 5 mg/kg) was 0.94 and the “AUMC 0-inf” value (K5 female, single oral 5 mg/kg) was 11402.2 ng/mL*h^2. For the same molecule, the Cl/F (K5 female, single oral 5 mg/kg) was 49.2 L/h, the “ka (absorption constant)” value (K5 female, single oral 5 mg/kg) was 0.25 h⁻¹ and the “AUC 0-t/AUC0-inf” value (K6 female, single oral 5 mg/kg) was 0.83. The “AUMC 0-inf” value (K6 female, single oral 5 mg/kg) was 14183.2 ng/mL*h^2, the Cl/F (K6 female, single oral 5 mg/kg) was 87.5 L/h and the “ka (absorption constant)” value (K6 female, single oral 5 mg/kg) was 0.25 h⁻¹. The “AUC 0-t/AUC0-inf” value [1] was 0.92, the “AUMC 0-inf” value [1] was 11361.8 ng/mL*h^2 and the Cl/F [1] was 58.4 L/h. For the same molecule, the ka [1] was 0.28 h⁻¹, the “AUC 0-t/AUC0-inf” value [2] was 0.90 and the “AUMC 0-inf” value [2] was 27285.7 ng/mL*h^2. For the same molecule, the Cl/F [2] was 24.7 L/h, the ka [2] was 0.19 h⁻¹ and the AUMC [3] was 19323.8 ng/mL*h ^ 2. For the same molecule, the Cl/F [3] was 41.6 L/h, the ka [3] was 0.24 h⁻¹ and the AUC(0-inf) (both, plasma, po, 5 mg/kg, AUC0-inf, arithmetic mean, n = 6 koalas, single oral 5 mg/kg) was 1480 ng·h/mL. For the same molecule, the AUC(0-inf) (both, plasma, po, 5 mg/kg, AUC0-inf, harmonic mean, n = 6 koalas, single oral 5 mg/kg) was 1080 ng·h/mL, the AUC(0-inf) (both, plasma, po, 5 mg/kg, AUC0-inf, median (range), n = 6 koalas, single oral 5 mg/kg) was 1260 ng·h/mL and the AUC(0-t) [4] was 1310 ng·h/mL. It also gave an AUC(0-t) [5] of 974 ng·h/mL, an AUC(0-t) [6] of 1240 ng·h/mL and a Cmax [4] of 141 ng/mL. It also gave a Cmax [5] of 79.2 ng/mL, a Cmax [6] of 140 ng/mL and an MRT inf [4] of 12 h. It also gave an MRT inf [5] of 10.7 h, an MRT inf [6] of 12.2 h and a Tmax [4] of 4.33 h. It also gave a Tmax [5] of 3.69 h, a Tmax [6] of 4 h and a Tmax (both, plasma, po, 5 mg/kg, median value, both sexes, koala (6), PO 5 mg/kg) of 4 h. For the same molecule, the Vd/F (both, plasma, po, 5 mg/kg, Vss/F, arithmetic mean, n = 6 koalas, single oral 5 mg/kg) was 674 L, the Vd/F (both, plasma, po, 5 mg/kg, Vss/F, harmonic mean, n = 6 koalas, single oral 5 mg/kg) was 332 L and the Vd/F (both, plasma, po, 5 mg/kg, Vss/F, median (range), n = 6 koalas, single oral 5 mg/kg) was 811 L. For the same molecule, the Vd/F (both, plasma, po, 5 mg/kg, Vz/F, arithmetic mean, n = 6 koalas, single oral 5 mg/kg) was 582 L, the Vd/F (both, plasma, po, 5 mg/kg, Vz/F, harmonic mean, n = 6 koalas, single oral 5 mg/kg) was 230 L and the Vd/F (both, plasma, po, 5 mg/kg, Vz/F, median (range), n = 6 koalas, single oral 5 mg/kg) was 240 L. For the same molecule, the k el [4] was 3.89e-05 s⁻¹, the k el [5] was 2.78e-05 s⁻¹ and the k el [6] was 4.17e-05 s⁻¹. For the same molecule, the half-life (both, plasma, po, 5 mg/kg, t1/2, arithmetic mean, n = 6 koalas, single oral 5 mg/kg) was 7 h, the half-life (both, plasma, po, 5 mg/kg, t1/2, harmonic mean, n = 6 koalas, single oral 5 mg/kg) was 5.01 h and the half-life (both, plasma, po, 5 mg/kg, t1/2, median (range), n = 6 koalas, single oral 5 mg/kg) was 5.46 h. For the same molecule, the MRT inf (female, in vivo, po, 5 mg/kg, K6 female, single oral 5 mg/kg) was 26.4 h, the concentration at 1 h [7] was 8.27 ng/mL and the concentration at 2 h [7] was 24.3 ng/mL. It also gave a concentration at 4 h [7] of 89.3 ng/mL, a concentration at 8 h [7] of 74.7 ng/mL and a concentration at 1 h [8] of 28.6 ng/mL. The concentration at 2 h [8] was 61.9 ng/mL, the concentration at 4 h [8] was 51.8 ng/mL and the concentration at 8 h [8] was 45.8 ng/mL. The concentration at 1 h [9] was 7.89 ng/mL, the concentration at 2 h [9] was 12.3 ng/mL and the concentration at 4 h [9] was 28.9 ng/mL. It also gave a concentration at 8 h [9] of 17.5 ng/mL, a concentration at 0.25 h [10] of 0.78 ng/mL and a concentration at 0.5 h [10] of 1.23 ng/mL. For the same molecule, the concentration at 12 h [10] was 40.2 ng/mL, the concentration at 24 h [10] was 3.7 ng/mL and the concentration at 0.25 h [11] was 3.74 ng/mL. It also gave a concentration at 0.5 h [11] of 5.88 ng/mL, a concentration at 12 h [11] of 23.3 ng/mL and a concentration at 24 h [11] of 12.8 ng/mL. It also gave a concentration at 36 h [11] of 3.83 ng/mL, a concentration at 0.25 h [12] of 3.58 ng/mL and a concentration at 0.5 h [12] of 10.6 ng/mL. For the same molecule, the concentration at 12 h [12] was 13.2 ng/mL, the concentration at 24 h [12] was 3.78 ng/mL and the concentration at 36 h [12] was 7.02 ng/mL. For the same molecule, the concentration at 48 h (female, koala, plasma, po, 5 mg/kg, Firocoxib plasma concentration, K6 female, 48 h, single oral 5 mg/kg) was 3.83 ng/mL, the AUC(0-inf) (female, plasma, po, 5 mg/kg, AUC0-inf, K4 female, single oral 5 mg/kg) was 973 ng·h/mL and the AUC(0-inf) (female, plasma, po, 5 mg/kg, AUC0-inf, K5 female, single oral 5 mg/kg) was 868 ng·h/mL. It also gave an AUC(0-inf) (female, plasma, po, 5 mg/kg, AUC0-inf, K6 female, single oral 5 mg/kg) of 537 ng·h/mL, an AUC(0-inf) (female, plasma, po, 5 mg/kg, AUC 0-inf, arithmetic mean, female koalas (n = 3), single oral 5 mg/kg) of 793 ng·h/mL and an AUC(0-inf) (female, plasma, po, 5 mg/kg, AUC 0-inf, harmonic mean, female koalas (n = 3), single oral 5 mg/kg) of 742 ng·h/mL. For the same molecule, the AUC(0-t) [13] was 954 ng·h/mL, the AUC(0-t) [14] was 820 ng·h/mL and the AUC(0-t) [15] was 444 ng·h/mL. The AUC(0-t) [16] was 739 ng·h/mL, the AUC(0-t) [17] was 664 ng·h/mL and the Cmax [13] was 89.3 ng/mL. For the same molecule, the Cmax [14] was 61.9 ng/mL, the Cmax [15] was 28.9 ng/mL and the Cmax [16] was 60.3 ng/mL. It also gave a Cmax [17] of 48.4 ng/mL.
